In patent US9580449B2, “Compositions and methods for the production of pyrimidine and pyridine compounds with BTK inhibitory activity” (Merck Patent GmbH, priority 2011, dated 2017):
Where two headings read alike, the source gives them in different places.

Legend:
[1] = target: full-length human BTK (Homo sapiens (Human), UniProt Q06187); assay: BTK IC50 enzyme assay (microfluidic off-chip mobility shift kinase assay); format: biochemical; settings: incubated for 90 min. at 27 C; read-out: Time Dependent BTK Enzyme Assay IC50
Outline: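 Off-chip microfluidic mobility shift assay on full-length human BTK; substrate-to-product conversion measured by charge/mass separation of phosphorylated peptide after reaction stop.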

[2] = target: BTK (Homo sapiens (Human), UniProt Q06187); assay: Time Dependent Human Whole Blood IC50 assay; format: cell-based
Procedure: Compounds described by embodiments of the present invention were assayed using a human whole blood assay. The data from the same is recorded in Table 2 within the column labeled: “Time Dependent Human Whole Blood BTK Enzyme Assay IC50”.

[3] = system: PBMC; assay: Time Dependent PBMC IC50 assay; format: cell-based
Procedure: Compounds described by embodiments of the present invention were assayed using a time dependent PMBC assay.

[4] = system: NZB/W F1 mice; assay: Interferon-alpha accelerated systemic lupus erythematosus (SLE) mouse model; format: in vivo; settings: oral, daily from day 14, 0.1, 0.3, 1, or 3 mg/kg; NZB/W F1 mice with ADV-IFN-α
Procedure: 1-(4-(((6-amino-5-(4-phenoxyphenyl)pyrimidin-4-yl)amino)methyl)piperidin-1-yl)prop-2-en-1-one, designated as “CPD. B”, was evaluated in an interferon-alpha accelerated SLE mouse model. NZB/W F1 mice received i.v. injection at day 0 and day 1 of 10^8 infectious units of adenovirus (ADV-IFN-α) to deliver a transient overexpression on interferon alpha. Oral dosing of the different group treatments was initiated on day 14 and continued daily at 24 hour intervals until the end of the study. Treatment groups consisted of 20% Kleptose HPB in Na-citrate buffer (vehicle) or 0.1, 0.3, 1, or 3 mg/kg of Cpd. […] As shown in Panel 1B Cpd. […] FIG. 2 presents data from another interferon-alpha accelerated SLE experiment in mice. NZB/W F1 mice received i.v. injections at day 0 and day 1 of 10^8 infectious units of adenovirus (ADV-IFN-α) to deliver a transient overexpression on interferon alpha. Oral dosing of the different group treatments (n=10) was initiated on day 14 and continued daily at 24 hour intervals until the end of the study. Treatment groups consisted of 20% Kleptose HPB in Na-citrate buffer (vehicle), 0.1, 0.3, 1, or 3 mg/kg of Cpd. B or Cell Cept®. […] Statistical analysis was performed using Two way ANOVA with Bonferroni post test with all groups compared to vehicle treated group (*=p<0.05, **=p<0.01, ***=p<0.001).

[5] = human whole blood, read-out: Time Dependent Human Whole Blood BTK Enzyme Assay IC50

BTK, sequence (Q06187 whole entry): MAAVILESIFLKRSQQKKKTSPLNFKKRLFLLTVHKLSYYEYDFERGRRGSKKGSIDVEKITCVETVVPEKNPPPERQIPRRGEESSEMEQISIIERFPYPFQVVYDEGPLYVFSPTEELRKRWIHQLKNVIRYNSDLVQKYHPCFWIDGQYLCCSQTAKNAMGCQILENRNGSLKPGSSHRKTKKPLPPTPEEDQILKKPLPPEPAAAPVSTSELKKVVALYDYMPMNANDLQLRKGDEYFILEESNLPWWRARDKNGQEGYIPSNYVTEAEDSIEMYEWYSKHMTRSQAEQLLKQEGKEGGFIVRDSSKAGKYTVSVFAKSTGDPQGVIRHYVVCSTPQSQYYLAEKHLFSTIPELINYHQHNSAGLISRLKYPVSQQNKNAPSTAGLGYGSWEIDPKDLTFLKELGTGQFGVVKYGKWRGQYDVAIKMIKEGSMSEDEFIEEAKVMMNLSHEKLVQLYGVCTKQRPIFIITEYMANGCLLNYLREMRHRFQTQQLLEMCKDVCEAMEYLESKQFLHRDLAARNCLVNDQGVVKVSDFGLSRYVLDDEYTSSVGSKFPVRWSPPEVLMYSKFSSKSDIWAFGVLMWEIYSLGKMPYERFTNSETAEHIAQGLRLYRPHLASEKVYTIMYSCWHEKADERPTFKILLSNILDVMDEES
full-length human BTK, sequence (Q06187 whole entry): as above

| SMILES | IC50 [1] | IC50 [2, 5] | IC50 [3] | IC50 [2] | disease activity [4] |
| --- | --- | --- | --- | --- | --- |
| C=CC(=O)Nc1cccc(Nc2ncnc(N)c2-c2ccc(Oc3ccccc3)cc2)c1 [A3, N-(3-((6-amino-5-(4-phenoxyphenyl)pyrimidin-4-yl)amino)phenyl)acrylamide] | < 0.1 µM | < 1 µM | < 1 µM | – | – |
| C=CC(=O)N1C2CCC1CC(CNc1ncnc(N)c1-c1ccc(Oc3ccccc3)cc1)C2 (stereo not shown) [A48, 1-(3-(((6-amino-5-(4-phenoxyphenyl)pyrimidin-4-yl)amino)methyl)-8-azabicyclo[3.2.1]octan-8-yl)prop-2-en-1-one] | < 0.1 µM | – | – | > 1 µM | – |
| C=CC(=O)N1CC2(CC(Oc3ncnc(N)c3-c3ccc(Oc4ccccc4)cc3)C2)C1 [A120, 1-(6-((6-amino-5-(4-phenoxyphenyl)pyrimidin-4-yl)oxy)-2-azaspiro[3.3]heptan-2-yl) prop-2-en-1-one] | < 0.1 µM | < 1 µM | < 1 µM | – | – |
| C=CC(=O)Nc1cccc(Oc2ncnc(N)c2-c2cnn(Cc3ccccc3)c2)c1 [A172, N-(3-((6-amino-5-(1-benzyl-1H-pyrazol-4-yl)pyrimidin-4-yl)oxy)phenyl)acrylamide] | < 0.1 µM | < 1 µM | < 1 µM | – | – |
| C=CC(=O)Nc1ccc(F)c(Oc2ncnc(N)c2-c2ccc(Oc3ccccc3)cc2)c1 [A246, N-(3-((6-amino-5-(4-phenoxyphenyl)pyrimidin-4-yl)oxy)-4-fluorophenyl)acrylamide] | < 0.1 µM | < 1 µM | < 1 µM | – | – |
| C=CC(=O)Nc1cc(Oc2ncnc(N)c2-c2ccc(Oc3ccccc3)cc2)c(F)cc1F [A251, N-(5-((6-amino-5-(4-phenoxyphenyl)pyrimidin-4-yl)oxy)-2,4-difluorophenyl)acrylamide] | < 0.1 µM | < 1 µM | < 1 µM | – | – |
| CC#CC(=O)N1CCC(CNc2ncnc(N)c2-c2ccc(Oc3ccccc3)cc2)CC1 [A336, 1-(4-(((6-amino-5-(4-phenoxyphenyl)pyrimidin-4-yl)amino)methyl)piperidin-1-yl)but-2-yn-1-one] | < 0.1 µM | – | < 1 µM | – | – |
| CC#CC(=O)N1CC[C@@H](Nc2ncnc(N)c2-c2ccc(Oc3ccccc3)cc2)C1 [A341, (R)-1-(3-((6-amino-5-(4-phenoxyphenyl)pyrimidin-4-yl)amino)pyrrolidin-1-yl)but-2-yn-1-one] | < 0.1 µM | – | < 1 µM | – | – |
| C=CC(=O)N1CCC(CNc2ncnc(N)c2-c2ccc(Oc3ccccc3)cc2)CC1 [Cpd. B, 1-(4-(((6-amino-5-(4-phenoxyphenyl)pyrimidin-4-yl)amino)methyl)piperidin-1-yl)prop-2-en-1-one] | – | – | – | – | reduces the disease activity in a dose-dependent manner |
